Source: US9555061B2, “Synthesis and analysis of compounds capable of inducing differentiation of human mesenchymal stems cells into hepatocytes” (National University Corporation Torrori University, priority 2011, dated 2017)

Legend:
UE7T-13 cells [1] = assay: Immunocytochemistry of hepatocyte markers (UE7T-13); format: cell-based, human; conditions: day 16
Method: A cover glass (22×22 mm, […]) was sterilized with 70% EtOH and placed in a 6-well plate. Next, cells were seeded on the cover glass and cultured in a medium containing IC-2, etc. At 8, 16, and […] after the initiation of the culture, the cells were washed twice with PBS. Then, the cells were treated with 4% paraformaldehyde/PBS for 20 min and fixed onto the cover glass. After that, the cells were permeated with 0.2% Triton X-100 for 10 min. Subsequently, the cells were blocked with 3% BSA/PBS for 30 min. An anti-albumin antibody, anti-C/EBP antibody, anti-AFP antibody, or anti-CYP1A1 antibody was used as a primary antibody, and the cells were incubated therewith at 4° C. overnight. Next, an Alexa Fluoro 488 goat anti-mouse antibody or Alexa Fluoro 594 goat anti-rabbit antibody was used as a secondary antibody, and the cells were incubated therewith at room temperature for 1 h. DAPI was used for nuclear staining. Thereafter, 50% glycerol diluted with PBS was used to mount the cover glass. Finally, the cells were observed under a confocal laser microscope. The cells which had been cultured with 0.1% DMSO were used as a control.

[2] = test system: clinical specimen-derived mesenchymal stem cells; assay: PAS staining in clinical specimen-derived mesenchymal stem cells; format: cell-based, human; conditions: day 8, PN-3-13 20 μM, IC-2 40 μM
Method: PAS staining was performed according to the following procedure. A cover glass that had been sterilized with 100% ethanol was placed on a 12-well plate. Cells were seeded on the cover glass at a cell density of 1.8×10^4 cells/cm^2. This day was designated as day 0. At day 1 corresponding to the next day, each medium was changed to a medium containing HC-2 (at a final concentration of 20 μM), PN-3-13 (at a final concentration of 20 μM), IC-2 (at a final concentration of 40 μM), or 0.1% DMSO. At day 4, the medium was changed in a manner similar to that at day 1, and the cells were cultured until day 8. At day 8, the cells were washed twice with PBS and were fixed with 4% paraformaldehyde for 30 min. As a negative control, α-amylase (Nacalai Tesque) at a final concentration of 10 mg/ml was added, and the cells were incubated therewith at 37° C. for 1 h to digest their glycogen. Subsequently, the cells were treated with 1% aqueous periodic acid for 5 min. Then, the cells were treated with a Schiff reagent (Nacalai Tesque) for 15 min to stain glycogen. After that, the cells were washed three times with aqueous sulfurous acid and were then washed three times with distilled water. The nuclei were stained with Mayer's Hematoxylin (MUTO PURE CHEMICALS CO., LTD.) for 1 min. […]

[3] = test system: Wnt/β-catenin signaling pathway; assay: Luciferase assay in sorted bone marrow-derived mesenchymal stem cells; format: cell-based, human; conditions: 40 or 45 μM; 8 days after the treatment
Method: Human bone marrow mononuclear cells that had been purchased from Lonza Inc. were suspended in 1 ml of Hanks' balanced salt solution (HBSS, Gibco, Life Technologies Corp.) supplemented with a 100-fold diluted APC-labeled anti-CD90 antibody, a 407-fold diluted PE-labeled anti-CD271 antibody, and 2% fetal bovine serum (FBS, Defined, Thermo Fisher Scientific Inc.), and were stained on ice for 30 min. A flow cytometer (MoFlo XDP, Beckman Coulter Inc.) was used to selectively separate mesenchymal stem cells. The resulting cells were cultured in Dulbecco's Modified Eagle's Medium (Low Glucose, Gibco, Life Technologies Corp.) containing 20% FBS, 100 U/ml penicillin, […] streptomycin (Nacalai Tesque), and 20 ng/ml basic fibroblast growth factor (TRANS GENIC INC., Ltd.) on a 35-mm dish under conditions at 37° C. and 5% CO2. The medium was changed every 4 days. After colonies were formed, the cells were detached using a 0.025% trypsin/1 mM EDTA solution (Nacalai Tesque), split on a 100-mm dish, and cultured under conditions at 37° C. and 5% CO2. Then, the cells which were kept 70 to 80% confluent were detached using trypsin treatment. These cells in one dish were divided into four dishes for passage.
Cells were seeded on a 96-well plate at a cell density of 5.0×10^3 cells/cm^2. […]

UE7T-13 cells [4] = assay: Proliferation potential (toxicity), MTT assay (UE7T-13)
[5] = test system: Wnt/β-catenin signaling pathway; assay: Ability of inhibiting Wnt/β-catenin pathway, luciferase assay (UE7T-13); format: cell-based, human; conditions: 8 days after the treatment; pTCF4-CMV-luciferase reporter
From the text: FIG. 3 is a schematic diagram illustrating how to establish a human mesenchymal stem cell stably expressing a β-catenin/TCF4/luciferase reporter gene. FIG. 3 illustrates how to construct pTCF4-CMVpro-GL4.20 plasmid by using a luciferase expression vector. The pTCF4-CMVpro-GL4.20 plasmid contains three TCF4 sequences […] upstream of a CMV promoter to express luciferase. In addition, pCMVpro-GL4.20 plasmid was constructed as a control. The resulting plasmids were each linearized, introduced into UE7T-13 by electroporation, and selected using puromycin (0.25 μg/ml) supplemented in a medium. Puromycin-resistant cells were cloned and used for a luciferase assay.
The cell line having a vector stably expressing luciferase was seeded on a 24-well plate, and was cultured at 37° C. At the next day, the medium was changed to a medium containing IC-2, etc., and the cell line was further cultured at 37° C. After that, at days 1, 4, and 8, a luciferase assay system (Promega) was used and the luciferase activity was read with a fluorescence plate reader (ARVO) at a wavelength of 556 nm.

UE7T-13 cells [6] = assay: Urea assay (UE7T-13); format: cell-based, human; conditions: day 16
Method: The cells were plated on a 24-well plate, and were cultured in a medium containing IC-2, etc. Ammonium chloride (at a final concentration of 5 mM) was added to the medium, and the cells were cultured for 48, 72, and 96 h. Then, an amount of urea in the medium was determined using a QuantiChrom Urea Assay Kit (BioAssay Systems) and a fluorescence plate reader (TECAN) at a wavelength of 520 nm.

In the case of “(6S,9aS)-6-phenyl-8-naphthalen-1-ylmethyl-4,7-dioxo-hexahydro-pyrazino[1,2-a]pyrimidine-1-carbocylic acid benzylamide [IC-2]”, the “levels of expression of albumin, C/EBPα, CYP1A1, and CYP3A4” value (UE7T-13 cells [1]) is reported as “remarkably increased”, the “cellular glycogen accumulation compared with negative control (0.1% DMSO)” value [2] is reported as “apparent increase” and the “inhibition of the Wnt/β-catenin signaling pathway (luciferase activity)” value [3] is reported as “significantly inhibited”. For the same substance, the “concentration with very low cell toxicity toward UE7T-13 cells” value (UE7T-13 cells [4]; days 2, 4, 8 of treatment) was no more than 20 µM, the “concentration at which proliferation potential did not remain” value (UE7T-13 cells [4]; days 2, 4, and 8) was 50 µM and the “concentration that significantly inhibited the Wnt/β-catenin signaling pathway” value [5] was no less than 15 µM. For the same substance, the “cellular urea synthesis compared with negative control (0.1% DMSO)” value (UE7T-13 cells [6]) was “remarkably increased”.
